Data set [1] relates to Aphidius rhopalosiphi. The conditions noted are these: not reported; reproduction.
The next data set relates to Apis mellifera. The conditions noted are these: acute; duration: 48 hours; oral; unspecified; mortality.
In another data set the test system is Beta vulgaris. As to conditions: acute; duration: 14 days; other.
A further data set has as its system Bibionidae. The conditions noted are these: chronic/long-term; duration: 21 days; other.
Another data set deals with Canidae. As to conditions: chronic; duration: 1 years; oral; Dog Other; clinical chemistry.
A further data set concerns Colinus virginianus. The conditions noted are these: for LD50: acute, oral, mortality.
A further data set has as its system Daphnia magna. The conditions noted are these: chronic/long-term; duration: 21 days; reproduction.
Another data set concerns Mus musculus. The conditions noted are these: chronic; duration: 18 months; histopathology: neoplastic.
Another data set concerns Oncorhynchus mykiss. The conditions noted are these: acute; duration: 96 hours; mortality.
In the next data set the test system is Pleurozium sp. The conditions noted are these: acute; duration: 72 hours; biomass.
Data set [2] relates to Aphidius rhopalosiphi. In words: LR50; higher = less toxic. The conditions noted are these: not reported; mortality.

This is an account of results in EPA's ToxValDB 9.5 (doi:10.2903/j.efsa.2008.138r).

≈ marks a conversion by molar mass, not a printed value.

With `Fc1ccc([C@@]2(Cn3cncn3)O[C@@H]2c2ccccc2Cl)cc1` [Epoxiconazole], the LEL was 246 g/ha in the data set with Aphidius rhopalosiphi [1] and 250 g/ha in the data set on Beta vulgaris. Further, the LD50 is more than 83 µg/piece in the data set with Apis mellifera; more than 5000 mg/kg with Colinus virginianus (diet); more than 2000 mg/kg with Colinus virginianus; 3160 mg/kg in the data set with Rattus norvegicus (acute, oral, mortality). For the same compound, the NOEC was determined as 0.0625 mg/L in the data set on Bibionidae; 0.63 mg/L in the data set with Daphnia magna; 0.0078 mg/L in the data set on Pleurozium sp.; 0.167 mg/kg in the data set on Tagia sp. (chronic/long-term, reproduction). Also, the no observed adverse effect level (NOAEL) – broadly, the highest dose or exposure tested at which no adverse effect was seen – with Canidae amounted to 1.6 mg/kg-day; in the data set on Mus musculus, 0.8 mg/kg-day; in the data set with Rattus norvegicus (reproduction developmental, reproduction), 2.3 mg/kg-day. The same compound registered an NOEL in the data set with Colinus virginianus (reproduction developmental) of 1 mg/kg-day. For the same compound, the LC50 in the data set with Oncorhynchus mykiss is 3.14 µg/mL (≈ 9.52 µM); in the data set on Tagia sp. (acute, duration: 14 days, mortality) it was more than 1000 mg/kg. Further, in the data set with Aphidius rhopalosiphi [2], the LR50 is more than 246 g/ha.
